According to patent publication US20240166602A1, “SUBSTITUTED DIARYL COMPOUND AS WELL AS PREPARATION METHOD AND APPLICATION THEREOF” (SHANDONG FIRST MEDICAL UNIV & SHANDONG ACADEMY OF MEDICAL …, priority 2021, published 2024):

Assays:
Type in all cases: cell-based
[1] = test system: human lung cancer (A549) cells; assay: MTT tumor cell growth inhibition, human lung cancer (A549); details: Homo sapiens; A549, 48 h culture, MTT method; read-out: IC50 value of target compound against cancer cell proliferation, A549
Method: (§1) Dissolve CHJ compound series with dimethyl sultbxide (DMSO, final concentration 0.4%), and use RPMI-1640 culture medium containing 15% fetal calf serum to prepare 1 mg/mL solution for future use. During drug administration in groups, use the culture medium to dilute it to the concentration needed.
(§2) Cell lines: human lung cancer (A549), Inman ovarian cancer (SKOV3), human melanoma (A375) and human colon cancer (LOVO) cell lines, all purchased from the Cell Bank of the Chinese Academy of Sciences, DMEM containing 15% fetal bovine serum (High Glucose) culture medium, placed in a 37° C., 5% CO2 incubator.
(§3) MTT is an oxidizing yellow dye with the chemical name of 3-(4,5-dimethyl-2-thiazolyl)-2,5-diphenyl-2-H-tetrazoliumbromide tetrazole bromide. The MMT method, also known as the MTT colorimetric method, can test the survival and growth of cells. The method is simple and easily accessible and often used to screet the substance with cytotoxic activity. The basic principle of testing, is that succinodehydrogenase can reduce exogenous MIT so that MTT is reduced to blueviolet crystal Formazan insoluble to water. The crystal deposits in cells. The succinodehydrogenase exists in the mitochondria of living cells, not in the dead cells. Therefore, the chromogenic reaction can only take place in living cells. Then, dissolve the blueviolet crystal Formazan contained in cells with dimethyl sulfoxide (DMSO), and measure its absorbancy with microplate reader so that the count of living cells is reflected indirectly. Within the scope of certain cell count, the amount of blueviolet crystal Formazan formed is positively correlated to the count of living cells.
(§4) Human lung cancer (A549), human ovarian cancer (SKOV3), human melanoma (A375) and human colon cancer (LOVO) ceilsare all adherent. Based on the growth rate of tumor cells, wash the adherent tumor cells in the logarithmic phase and digest them in 0.25% EDTA pancreatic enzyme. Adjust the cell count to 1×10^5/mL and inoculate the cells in 96-pore plate, each pore containing 100 μL. Culture the cells in the 37° C. CO2 incubator, and administer the drug 24 h later. Add pharmaceutical (CJH compound series) of different concentrations to the administration group. Set up 5 dosage groups for each pharmaceutical, respectively 100, 10, 1, 0.1, 0.01 μmol/L. Set up three complex pores for each concentration. Set up blank control, DMSO (0.8%) solvent control and cis-platinum positive control. After 48 h of culture in the 37 ° C. incubator containing 5% CO2, measure the OD value through MTT method and calculate the cell inhibition ratio.
(§5) After 48 h of culture of human lung cancer (A549), human ovarian cancer (SKOV3). human melanoma (A375) and human colon cancer (LOVO) cells, stop it and add 10 μL 0.5% MTT solution to each pore. Place it in the CO2 incubator for 4 h. Remove the liquid from each pore, respectively add 0.2 mL DMSO solution, and oscillate it adequately on the table concentrator under low frequency so that the blueviolet crystal Formazan is dissolved adequately. Place it in the microplate reader and record the OD value at the wavelength of […]. Calculate the average OD value of three parallel pores of different concentrations, and calculate the cell inhibition ratio and IC50 of each tested pharmaceutical under different concentrations based on the average.
(§6) Inhibition ratio (%)=[1-tested sample OD/negative control group OD]×100%.

[2] = test system: human ovarian cancer (SKOV3) cells; assay: MTT tumor cell growth inhibition, human ovarian cancer (SKOV3); details: Homo sapiens, SK-OV-3; SKOV3, 48 h culture, MTT method; read-out: IC50 value of target compound against cancer cell proliferation, SKOV3
Method: as §1, §2, §3, §4, §5, §6

[3] = test system: human melanoma (A375) cells; assay: MTT tumor cell growth inhibition, human melanoma (A375); details: Homo sapiens, A-375; A375, 48 h culture, MTT method; read-out: IC50 value of target compound against cancer cell proliferation, A375
Method: as §1, §2, §3, §4, §5, §6

[4] = test system: human colon cancer (LOVO) cells; assay: MTT tumor cell growth inhibition, human colon cancer (LOVO); details: Homo sapiens, 48 h culture, MTT method, read-out: IC50 value of target compound against cancer cell proliferation, LOVO
Method: as §1, §2, §3, §4, §5, §6

Row | SMILES | IC50 [1] [µM] | IC50 [2] [µM] | IC50 [3] [µM] | IC50 [4] [µM]
1 | COc1cc(CN(C)CC(O)COc2ccc(F)c(Br)c2)ccc1OCCN1CCC(C)CC1 (centres unmarked) [CHJ04020, 1-(3-bromo-4-fluorophenoxy)-3-((3-methoxy-4-(2-(4-methylpiperidin-1-yl)ethoxy)benzyl)(methyl)amino)propan-2-ol] | 1.38 ± 1.14 | 3.4 ± 1.17 | 1.6 ± 0.92 | 3.83 ± 1.8
2 | CCN(CC)CCOc1ccc(CN(C)CC(O)COc2ccc(Cl)c(Cl)c2)cc1OC (centres unmarked) [CHJ04091, 1-(3,4-dichlorophenoxy)-3-((4-(2-(diethylamino)ethoxy)-3-methoxybenzyl)(methyl)amino)propan-2-ol] | 11.1 ± 1.33 | 17.8 ± 3.11 | 4.01 ± 3.11 | 10.6 ± 3.2
3 | COc1cc(CN(C)CC(O)COc2ccc(C)c(Br)c2)ccc1OCCn1ccnc1 (centres unmarked) [CHJ05003, 1-((4-(2-(1H-imidazol-1-yl)ethoxy)03-methoxybenzyl)(methyl)amino)-3-(3-bromo-4-methylphenoxy)propan-2-ol] | 34 ± 2.11 | 35.1 ± 1.35 | 24.9 ± 1.93 | 52.5 ± 1.22
4 | COc1cc(CN(C)CC(O)COc2ccc(Cl)c(Cl)c2)ccc1OCCN1CCC(C)CC1 (centres unmarked) [CHJ04026, 1-(3,4-dichlophenoxy)-3-((3-methoxy-4-(2-(4-methylpiperidin-1-yl)ethoxy)benzyl) (methyl)amino)propan-2-ol] | 0.97 ± 0.21 | 7.45 ± 2.26 | 1.5 ± 0.06 | 0.82 ± 0.42
5 | COc1cc(CN(C)CC(O)COc2ccccc2Cl)ccc1OCCN1CCC(C)CC1 (centres unmarked) [CHJ04085, 1-(2-chlorophenoxy)-3-((3-methoxy-4-(2-(4-methylpiperidin-1-yl)ethoxy)benzyl) (methyl)amino)propan-2-ol] | 28.8 ± 5.12 | 49.2 ± 1.97 | 7.32 ± 1.8 | 1.94 ± 0.79
6 | COc1cc(CN(C)CC(O)COc2cccc(C(F)(F)F)c2)ccc1OCCN1CCC(C)CC1 (centres unmarked) [CHJ04025, 1-((3-methoxy-4-(2-(4-methylpiperidin-1-yl)ethoxy)benzyl)(methyl)amino)-3-(3-(trifluoromethyl)phenoxy)propan-2-ol] | 4.21 ± 2.24 | 3.32 ± 1.02 | 2.34 ± 1.63 | 2.55 ± 1.65
7 | COc1cc(CN(C)CC(O)COc2cc(Cl)cc(Cl)c2)ccc1OCCN1CCCC1 (centres unmarked) [CHJ04066, 1-(3,5-dichlorophenoxy)-3-((3-methoxy-4-(2-(pyrrolidin-1-yl)ethoxy)benzyl)(methyl)amino)propan-2-ol] | 29.9 ± 2.45 | 77.1 ± 4.07 | 10.3 ± 1.4 | 2.5 ± 0.65
8 | COc1cc(CN(C)CC(O)COc2cccc(NC(C)=O)c2)ccc1OCCN1CCC(C)CC1 (centres unmarked) [CHJ04058, N-(3-(2-hydroxy-3((3-methoxy-4-(2-(4-methylpiperidin-1-yl)ethoxy)benzyl)(methyl)amino)propoxy)phenyl)acetamide] | 245.3 ± 2.4 | 102 ± 1.48 | 56.21 ± 0.55 | 54 ± 2.14
9 | CCN(CC)CCOc1ccc(CN(C)CC(O)COc2ccc(F)c(Br)c2)cc1OC (centres unmarked) [CHJ04092, 1-(3-bromo-4-fluorophenoxy)-3-((4-(2-(diethylamino)ethoxy)-3-methoxybenzyl)(methyl)amino)propan-2-ol] | 30.2 ± 2.76 | 34.5 ± 2.7 | 11.2 ± 1.05 | 47.9 ± 3.43
10 | COc1cc(CN(C)CC(O)COc2cc(C(F)(F)F)ccc2Br)ccc1OCCn1ccnc1 (centres unmarked) [CHJ04099, 1-((4-(2-(1H-imidazol-1yl)ethoxy)-3-methoxybenzyl)(methyl)amino)-3-(2-bromo-5-(trifluoromethyl)phenoxy)propan-2-ol] | 23.1 ± 2.58 | 37.4 ± 2.48 | 16.2 ± 2.11 | 38.2 ± 2.94
11 | COc1cc(CN(C)CC(O)COc2cc(Br)ccc2F)ccc1OCCN1CCC(C)CC1 (centres unmarked) [CHJ03018] | 18.8 ± 1.06 | 1.79 ± 0.23 | 3.13 ± 0.06 | 1.72 ± 1.58
12 | COc1cc(CN(C)CC(O)COc2ccc(Br)cc2)ccc1OCCn1ccnc1 (centres unmarked) [CHJ05001] | 30.7 ± 3.12 | 40.1 ± 3.02 | 15.8 ± 1.73 | 49.1 ± 2.71
13 | CCOc1ccccc1OCC(O)CN(C)Cc1ccc(OCCN2CCC(C)CC2)c(OC)c1 (centres unmarked) [SAMS10] | 14.64 ± 0.06 | 21.07 ± 0.18 | 27.1 ± 0.66 | 8.48 ± 0.07
14 | COc1cc(CN(C)CC(O)COc2cc(C(F)(F)F)ccc2Br)ccc1OCCN1CCC(C)CC1 (centres unmarked) [CHJ04011] | 4.05 ± 1.12 | 2.41 ± 1.03 | 0.48 ± 0.28 | 1.01 ± 0.08
15 | COc1cc(CN(C)CC(O)COc2cccc(Br)c2)ccc1OCCN1CCC(C)CC1 (centres unmarked) [CHJ03001, 1-(3-bromophenoxy)-3-((3-methoxy-4-(2-(4-methylpiperidin-1-yl)ethoxy)benzyl) (methyl)amino)propan-2-ol] | 1.3 ± 1.03 | 2.48 | 1.95 ± 0.33 | 1.26 ± 0.53
16 | CCN(CC)CCOc1ccc(CN(C)CC(O)COc2ccccc2C(C)C)cc1OC (centres unmarked) [CHJ04089, 1-((4-(2-(diethylamino)ethoxy)-3-methoxybenzyl)(methyl)amino)-3-(2-isopropylphenoxy)propan-2-ol] | 27.8 ± 1.73 | 42.7 ± 2.61 | 15 ± 2.37 | 49.5 ± 3.54
17 | CCN(CC)CCOc1ccc(CN(C)CC(O)COc2c(Cl)cc(Br)cc2Cl)cc1OC (centres unmarked) [CHJ04094, 1-(4-bromo-2,6-dichlorophenoxy)-3-((4-(2-(diethylamino)ethoxy)-3-methoxybenzyl) (methyl)amino)propan-2-ol] | 18.4 ± 3.17 | 15.9 ± 2.11 | 2.05 ± 1.01 | 28.5 ± 4.42
18 | COc1cccc(OCC(O)CN(C)Cc2ccc(OCCN3CCC(C)CC3)c(OC)c2)c1 (centres unmarked) [CHJ03017, 1-((3-methoxy-4-(2-(4-methylpiperidin-1-yl)ethoxy)benzyl)(methyl)amino)-3-(3-methoxyphenoxy)propan2-ol] | 17.2 ± 0.79 | 6.21 ± 1.04 | 8.68 ± 0.11 | 2.44 ± 0.03
19 | COc1cc(CN(C)CC(O)COc2ccc(C)c(Br)c2)ccc1OCCN1CCCC1 (centres unmarked) [CHJ04064, 1-(3-bromo-4-methylphenoxy)-3-((3-methoxy-4-(2-(pyrrolidin-1-yl)ethoxy)benzyl) (methyl)amino)propan-2-ol] | 21.5 ± 3.65 | 17.1 ± 0.24 | 9.24 ± 2.65 | 3.55 ± 2.14
20 | COc1cc(CN(C)CC(O)COc2ccccc2I)ccc1OCCN1CCC(C)CC1 (centres unmarked) [CHJ04027] | 6.22 ± 1.34 | 3.02 ± 1.76 | 0.73 ± 0.13 | 2.35 ± 1.04
21 | COc1cc(CN(C)CC(O)COc2ccc(Cl)cc2Cl)ccc1OCCN1CCC(C)CC1 (centres unmarked) [CHJ04059, 1-(2,4-dichlorophenoxy)-3-((3-methoxy-4-(2-(4-methylpiperidin-1-yl)ethoxy)benzyl) (methyl)amino)propan-2-ol] | 10.6 ± 3.37 | 3.26 ± 1.21 | 3.23 ± 0.49 | 3.92 ± 0.56
22 | COc1cc(CN(C)CC(O)COc2c(Cl)cccc2Cl)ccc1OCCN1CCC(C)CC1 (centres unmarked) [CHJ02029, 1-(2,6-dichlorophenoxy)-3-((3-methoxy-4-(2-(4-methylpiperidin-1-yl)ethoxy)benzyl) (methyl)amino)propan-2-ol] | 3.55 ± 0.06 | 6.3 ± 0.16 | 2.43 ± 0.12 | 1.87 ± 0.02
23 | COc1cc(CN(C)CC(O)COc2c(Cl)cc(Br)cc2Cl)ccc1OCCN1CCC(C)CC1 (centres unmarked) [CHJ04033, 1-(4-bromo-2,6-dichlorophenoxy)-3-((3-methoxy-4-(2-(4-methylpiperidin-1-yl)ethoxy)benzyl)(methyl)amino)propan-2-ol] | 0.95 ± 0.37 | 6.22 ± 3.05 | 0.92 ± 0.07 | 2.23 ± 1.26
